Experimental data as given in patent US20220096364A1, “Oral Care Compositions Comprising Prenylated Flavonoid” (The Procter & Gamble Company, priority 2020, published 2022).
In brackets after ≈: the same amount, converted by molar mass.

Legend:
[1] = test system: Streptococcus mutans (ATCC strain 25175); test: Minimum inhibitory concentration (MIC) against Streptococcus mutans, 2-fold serial dilution in broth, visual scoring; format: cell-based; conditions: S. mutans ATCC 25175, TSB, overnight at 35° C., anaerobic chamber; for MIC: Streptococcus mutans, ATCC25175
Method: (§1) The minimum inhibitory concentration (MIC) values against Streptococcus mutans for a collection of prenylated flavonoids of varying octanol/water partition coefficients (Log P) were determined using a conventional protocol. A culture of Streptococcus mutans (S. mutans, ATCC strain 25175) was grown overnight (18-24 hour incubation time at 35° C.) in a Tryptone Soy Broth (TSB. BD, Becton, Dickinson and Company, Sparks, Md., USA) and adjusted to deliver a target count of between 2×10^7 and 2×10^8 CFU/mL using a turbidimetric target density at 600 nm. The inoculum was then diluted 1/1000 in TSB for S. mutans. A volume of 100 μL of inoculum was added to a row of wells (12 wells per row) of a 96-well plate for which the MIC value of a test compound would be determined. An additional 95 μL of inoculum was added to the first well in that row. For each compounded tested obtained as a pure isolate in DMSO (Phytolab GmbH, Germany), 5 μL of a stock solution (2 mg compound/mL DMSO) was also added to the first well in that row. Then, a 2-fold serial dilution was performed where 100 μL of the first well was transferred to the second well in a row and mixed with 100 μL of growth medium. This was repeated until the last well of a row was reached. In the last well, 100 μL was discarded such that all wells contained 100 μL. The plates were covered and incubated overnight at 35° C. in an anaerobic chamber (85/10/5; N2, CO2, H2) without agitation. The procedure was repeated row by row until each compound was serially diluted. Multiple plates were used if necessary. […] The MIC value was determined for each compounded tested in a row by identifying the well with the lowest concentration of test compound in the serial dilution necessary to maintain a clear well.

[2] = test system: Porphyromonas gingivalis (ATCC strain 33277); test: Minimum inhibitory concentration (MIC) against Porphyromonas gingivalis, 2-fold serial dilution in Minimal Medium+, visual scoring; format: cell-based; conditions: P. gingivalis ATCC 33277, Minimal Medium+, overnight at 35° C., anaerobic chamber; for MIC: Porphyromonas gingivalis, ATCC33277
Method: The minimum inhibitory concentration (MIC) values against Porphyromonas gingivalis for a collection of prenylated flavonoids of varying octanol/water partition coefficients (Log P) were determined using a conventional protocol. A culture of Porphyromonas gingivalis (P. gingivalis, ATCC strain 33277) from glycerol stock was grown with a gas mix of 85% nitrogen, 10% CO2, and 5% hydrogen for 48-72 hours at 33° C. by inoculating a large loopful in MTGE (Anaerobe Systems, Morgan Hill, Calif., USA). Following incubation in MTGE, the optical density was adjusted to deliver a target count of between 2×10^7 and 2×10^8 CFU/mL using a turbidimetric target density at 600 nm using P. gingivalis Minimal Medium+. Minimal Medium+ is a growth medium containing 10 mM monosodium phosphate, 10 mM potassium chloride, 10 mM magnesium chloride, 7.7 μM hemin, 2.9 μM menadione, 30 g/L alphaglobuline from bovine blood, 250 μM calcium chloride, 100 mL/L fetal bovine serum, adjusted to pH 7.0 with NaOH. It is made by mixing alphaglobuline in water, adding salts, adjusting to pH 7.0 with NaOH, filtering using […] filter, then adding hemin, menadione, and fetal bovine serum.
as §1, with “The” for “The minimum inhibitory concentration (MIC) values against Streptococcus mutans for a collection of prenylated flavonoids of varying octanol/water partition coefficients (Log P) were determined using a conventional protocol. A culture of Streptococcus mutans (S. mutans, ATCC strain 25175) was grown overnight (18-24 hour incubation time at 35° C.) in a Tryptone Soy Broth (TSB. BD, Becton, Dickinson and Company, Sparks, Md., USA) and adjusted to deliver a target count of between 2×10^7 and 2×10^8 CFU/mL using a turbidimetric target density at 600 nm. The”, “1/50” for “1/1000”, “Minimal Medium+” for “TSB”, “P. gingivalis.” for “S. mutans.”

Structure (SMILES)	MIC [1]	MIC [2]	MIC (S. mutans) [1]	MIC (P. gingivalis) [2]
CC(C)=CCc1cc2c(cc1O)O[C@H](c1ccc(O)cc1)CC2=O [Bavachin]	> 500 µg/mL	31.2 µg/mL (≈ 96.3 µM)		
COc1ccc(-c2oc3c(CC=C(C)C)c(O)cc(O)c3c(=O)c2O)cc1 [Icaritin]	> 500 µg/mL	> 500 µg/mL		
CC(C)=CCc1cc([C@@H]2CC(=O)c3ccc(O)c(CC=C(C)C)c3O2)cc(CC=C(C)C)c1O [(−)-Sophoranone]			125 ppm	50 ppm
C=C(C)[C@H](CC=C(C)C)Cc1c(O)cc(O)c2c1O[C@H](c1ccc(O)cc1O)CC2=O [Sophoraflavanone G]			1.5625 ppm	12.5 ppm
C=C(C)[C@H](CC=C(C)C)Cc1c(O)cc(OC)c2c1O[C@H](c1ccc(O)cc1O)CC2=O [Kurarinone]	3.91 µg/mL (≈ 8.91 µM)	15.6 µg/mL (≈ 35.6 µM)		
CC(C)=CCc1cc(C(=O)/C=C/c2ccc(O)cc2)c(O)cc1O [Bavachalcone]			3.125 ppm	12.5 ppm
CC(C)=CCc1cc(-c2coc3cc(O)ccc3c2=O)ccc1O [Neobavaisoflavone]	12.5 µg/mL (≈ 38.8 µM)	31.2 µg/mL (≈ 96.9 µM)		
CC(C)=CCc1c(-c2ccc(O)cc2O)oc2c([C@H]3C=C(C)C[C@@H](c4ccc(O)cc4O)[C@@H]3C(=O)c3ccc(O)cc3O)c(O)cc(O)c2c1=O [Kuwanon G]			3.125 ppm	125 ppm
CC(C)=CCc1c(-c2ccc(O)cc2O)oc2c(CC=C(C)C)c(O)cc(O)c2c1=O [Kuwanon C]			0.9766 ppm	7.8125 ppm
CC(C)=CCc1c(O)ccc(C(=O)/C=C/c2ccc(O)cc2)c1O [Isobavachalcone]	1.56 µg/mL (≈ 4.82 µM)	12.5 µg/mL (≈ 38.5 µM)		
CC(C)=CCc1c(O)cc2c(c1O)C(=O)C[C@@H](c1ccc(O)cc1)O2 [6-Prenylnaringenin]	15.6 µg/mL (≈ 45.9 µM)	25 µg/mL (≈ 73.4 µM)		
COc1cc(O)c(CC=C(C)C)c(O)c1C(=O)/C=C/c1ccc(O)cc1 [Xanthohumol]	3.12 µg/mL (≈ 8.82 µM)	12.5 µg/mL (≈ 35.3 µM)		
COc1cc(O)c(C(=O)[C@@H]2[C@H](CC=C(C)C)C(C)=CC[C@H]2c2ccccc2)c(O)c1 [Panduratin A]			0.7813 ppm	0.488 ppm
CC(C)=CCC/C(C)=C/Cc1cc(-c2coc3cc(O)ccc3c2=O)ccc1O [Corylifol A]			>500 ppm	15.625 ppm
CC(C)=CCc1c(O)cc(O)c2c1O[C@H](c1ccc(O)cc1)CC2=O [8-Prenylnaringenin]	12.5 µg/mL (≈ 36.7 µM)	50 µg/mL (≈ 147 µM)		
COc1cc(O)c(CC=C(C)C)c2c1C(=O)CC(c1ccc(O)cc1)O2 (stereo not shown) [Isoxanthohumol]	50 µg/mL (≈ 141 µM)	25 µg/mL (≈ 70.5 µM)		
COc1ccc(-c2oc3c(CC=C(C)C)c(O[C@@H]4O[C@H](CO)[C@@H](O)[C@H](O)[C@H]4O)cc(O)c3c(=O)c2O[C@@H]2O[C@@H](C)[C@H](O)[C@@H](O)[C@H]2O)cc1 [Icariin]	> 500 µg/mL	50 µg/mL (≈ 73.9 µM)		
